Earlier results, collected in patent US20130023590A1, “AQUEOUS COMPOSITIONS COMPRISING RESVERATROL AND METHODS FOR MAKING THEM” (priority 2011, published 2013).
Read-outs that look alike come from different tables or passages of the source.

Columns and labels:
yeast = details: in the absence of caloric restriction
[1] = for solubility in water: with heating
[2] = oral, humans

solubility in organic solvents ([1]; ethanol, dimethyl sulfoxide or dimethyl formamide): approximately 65 mg/ml
solubility in water ([1]; Sigma-Aldrich Product Information Sheet): 3 mg/100 ml
solubility in water ([1]; same value restated in ppm): 30 ppm
bioavailability [2]: very low
Compound: Oc1ccc(C=Cc2cc(O)cc(O)c2)cc1 [resveratrol, 3,4′,5-trihydroxystilbene]
extension of replicative lifespan of yeast (yeast): 70%
